Data reported in patent US7919458B2, “Method of inhibiting prostate cancer cell proliferation” (Scott, Kieran, Francis, priority 2002, dated 2011).
Non-standard residues stand in square brackets, D forms with d. 2Nal = N[C@@H](Cc1ccc2ccccc2c1)C(=O)O

T1: human sPLA2-IIA (Homo sapiens, UniProt P14555)
T1 sequence (P14555 21-144): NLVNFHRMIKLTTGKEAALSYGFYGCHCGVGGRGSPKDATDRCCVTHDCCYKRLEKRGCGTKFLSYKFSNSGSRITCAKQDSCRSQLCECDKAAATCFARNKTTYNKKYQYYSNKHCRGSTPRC

B1: sPLA2-IIA: human recombinant sPLA2-IIA purified from Chinese hamster ovary cell conditioned media (protein, listed as Homo sapiens)
chain: MKTLLLLAVIMIFGLLQAHGNLVNFHRMIKLTTGKEAALSYGFYGCHCGVGGRGSPKDATDRCCVTHDCCYKRLEKRGCGTKFLSYKFSNSGSRITCAKQDSCRSQLCECDKAAATCFARNKTTYNKKYQYYSNKHCRGSTPRC

Columns and labels:
human sPLA2-IIA = target: T1, human sPLA2-IIA; details: previously published work (Tseng et al. 1996; Church et al. 2001); cited from earlier work
DU145 = assay: MTS cell growth assay, unstimulated DU145 cells; type: cell-based, human; details: 1-100 nM, 72 hours, sPLA2-IIA mRNA undetectable
Experimental: (§1) FIG. 4. Effect of sPLA2-IIA inhibition on unstimulated prostate cancer cells. (A) The endogenous expression of sPLA2-IIA mRNA was evaluated by RT-PCR in three unstimulated prostate cancer cell lines (LNCaP, DU145 and PC-3) grown in RPMI containing 5% FCS. HPRT was used to as a positive control for RNA integrity and loading. (B) Cells were grown in RPMI with 5% FCS were then treated for 72 hours in the presence and absence of the sPLA2-IIA inhibitor c(2Nap)LS(2Nap)R and cell number determined by MTS assay as described in Materials and Methods. Data are mean±SD of quadruplicate determinations expressed as percentages relative to untreated control cells (100%). LNCaP, closed bars, OD495 untreated cells 0.50±0.03; DU145, open bars, OD495 untreated cells 0.73±0.05; PC-3, hatched bars, OD495 untreated cells, 0.66±0.01. *p<0.05 vs untreated control by one-way ANOVA.
Cell Lines and Culture. The LNCaP, DU145 and PC3 cell lines were purchased from American Type Culture Collection (Rockville, Md.). […]
(§2) Cell growth assay. […] After treatment, the number of viable cells was determined using the MTS assay (CellTiter 96® AQueous Assay; Promega, Madison, Wis.). […] The absorbance at 490 nm was measured with an ELISA microplate reader. […]
To test the effect of blocking endogenous sPLA2-IIA on cell growth, we firstly determined the basal mRNA levels of sPLA2-IIA in 3 human prostate cancer cell lines. […]

LNCaP = assay: MTS cell growth assay, unstimulated LNCaP cells; type: cell-based, human; details: 72 hours; for Proliferation of unstimulated LNCaP cells: 1-100 nM, endogenous sPLA2-IIA; for Smallest effective dose, LNCaP proliferation: doses 1-100 nM
Experimental: as §1
(§3) Cell Lines and Culture. The LNCaP, DU145 and PC3 cell lines were purchased from American Type Culture Collection (Rockville, Md.). All cell cultures were maintained in RPMI 1640 supplemented with 5% FBS for LNCaP and 10% FBS for DU145 and PC3 at 37° C. in a humidified environment of 5% CO2. For experiments with addition of androgens, cells were cultured in RPMI 1640 without phenol red and supplemented with same concentration of charcoal stripped FBS. For experiments described in this article, we used cells between passage 30 and 45 for LNCaP, 65 and 80 for DU145 and 25 and 40 for PC3.
(§4) Cell growth assay. Cells were plated at 1×10^4 per well in 96-well plates with 0.1 ml of FBS-supplemented RPMI. After reaching 70-80% confluence (about 48 hours), the medium was changed to that containing various treatments for 3 days. After treatment, the number of viable cells was determined using the MTS assay (CellTiter 96® AQueous Assay; Promega, Madison, Wis.). In brief, 20 ul of MTS solution was added to each well and cells were incubated for 1 h. The absorbance at 490 nm was measured with an ELISA microplate reader. Each experiment was performed in quadruplicate and repeated at least three times.
(§5) To test the effect of blocking endogenous sPLA2-IIA on cell growth, we firstly determined the basal mRNA levels of sPLA2-IIA in 3 human prostate cancer cell lines. The androgen-independent cell lines PC-3 and DU145 cells were included in the study to also exclude a possible general toxicity of the inhibitors. mRNA encoding sPLA2-IIA was undetectable in DU-145 compared with LNCaP and PC-3 cells (FIG. 4A). We then tested the effect of individual inhibitors cFLSYR (SEQ ID NO: 6) and c(2Nap)LS(2Nap) R on cell growth over a range of doses (1-100 nM). […] The low but effective dosage and its specificity for cell lines containing endogenous sPLA2-IIA only, indicate that non-specific cell toxicity is not likely to explain the inhibitory effect.

PC-3 = assay: MTS cell growth assay, unstimulated PC-3 cells; type: cell-based, human; details: 72 hours; for Proliferation of unstimulated PC-3 cells: 1-100 nM, endogenous sPLA2-IIA; for Smallest effective dose, PC-3 proliferation: doses 1-100 nM
Experimental: as §1, §3, §4, §5

LNCaP cells [1] = assay: MTS cell growth assay, inhibition of sPLA2-IIA-stimulated LNCaP proliferation; type: cell-based, human; details: fixed sPLA2-IIA (1 nM), 72 hours, increasing inhibitor concentrations
Experimental: (§6) FIG. 2. Effect of exogenous addition of sPLA2-IIA on prostate cell growth. LNCaP cells were grown in RPMI with 5% FCS and treated for 72 hours in media containing (A) increasing concentrations of sPLA2-IIA alone (closed bars) or increasing concentrations of the activity-dead sPLA2-IIA mutant H48Q. (B) a fixed concentration of sPLA2-IIA and increasing concentrations of the sPLA2-IIA inhibitor cFLSYR (SEQ ID NO: 6). Cell number relative to untreated control cells was determined by the MTS assay as described in Materials and Methods. Data are Mean±SD of quadruplicate determinations normalised to 100% for untreated cells. OD495 of unstimulated cells was 0.29±0.06 for sPLA2-IIA and 0.24±0.03 for the sPLA2-IIA mutant experiments in panel A and 0.24±0.03 for panel B. *p<0.05 vs untreated control by one-way ANOVA. Data are representative of three separate experiments. (C). […]
FIG. 3. […] Cell number was determined by the MTS assay as described in Materials and Methods. Data are mean±SD of quadruplicate determinations expressed as percentages relative to untreated control cells (100%) (open bar). […]
as §2

LNCaP cells [2] = assay: Flow cytometric cell cycle analysis (propidium iodide) of LNCaP cells; type: cell-based, human
Experimental: FIG. 2. Effect of exogenous addition of sPLA2-IIA on prostate cell growth. LNCaP cells were grown in RPMI with 5% FCS and treated for 72 hours in media containing (A) increasing concentrations of sPLA2-IIA alone (closed bars) or increasing concentrations of the activity-dead sPLA2-IIA mutant H48Q. (B) a fixed concentration of sPLA2-IIA and increasing concentrations of the sPLA2-IIA inhibitor cFLSYR (SEQ ID NO: 6). Cell number relative to untreated control cells was determined by the MTS assay as described in Materials and Methods. Data are Mean±SD of quadruplicate determinations normalised to 100% for untreated cells. OD495 of unstimulated cells was 0.29±0.06 for sPLA2-IIA and 0.24±0.03 for the sPLA2-IIA mutant experiments in panel A and 0.24±0.03 for panel B. *p<0.05 vs untreated control by one-way ANOVA. Data are representative of three separate experiments. (C). LNCaP cells were grown as above and stimulated for 72 hours with sPLA2-IIA (1 nM) in the absence (dotted lines) and presence (solid lines) of the sPLA2-IIA inhibitor cFLSYR (SEQ ID NO: 6) (100 nM). Cells (1×10^6) were assayed by flow cytometry following treatment with propidium iodide as described in Materials and Methods. Statistical analysis was performed on 10,000 events per sample. Data are representative of three separate experiments.
Flow Cytometric Analysis. Cells were seeded in 25 ml flasks in conditions as described above. Following treatment, trypsinization and cell counting, LNCaP cells (1×10^6) were suspended in 1 mL PBS and incubated with 0.2 mL 0.4% Triton® X-100 for 5 min at R/T in the presence of 50 μL of propidium iodide solution (50 μg/mL) and 20 μL of ribonuclease (10 mg/mL). DNA content per cell was measured by flow cytometry using an FACScalibur® flow cytometer and CellQuest® software (Becton Dickinson, Franklin Lakes, N.J.). Statistical analysis was performed on 10,000 events per sample.
We next used flow cytometric analysis to determine how sPLA2-IIA affects the distribution of LNCaP cells in different phases of the cell cycle. […]

LNCaP cells [3] = assay: MTS cell growth assay, exogenous sPLA2-IIA added to LNCaP cells; type: cell-based, human; details: 72 hours
Experimental: as §6, §2
To examine the biological relevance of sPLA2-IIA to prostate cancer cell growth, we treated LNCaP cells with increasing doses of human recombinant sPLA2-IIA and monitored cell growth. […]

| Molecule | Inhibition of human sPLA2-IIA in in vitro activity assays (human sPLA2-IIA) | Effect on unstimulated DU145 cell growth (DU145) | Proliferation of unstimulated LNCaP cells (LNCaP) | Smallest effective dose, LNCaP proliferation (LNCaP) [nM] | Proliferation of unstimulated PC-3 cells (PC-3) | Smallest effective dose, PC-3 proliferation (PC-3) [nM] | Effect on sPLA2-IIA-stimulated LNCaP cell number/growth (LNCaP cells [1]) | Proportion of cells in G1 and G2 phase with sPLA2-IIA plus inhibitor (LNCaP cells [2]; sPLA2-IIA 1 nM plus cFLSYR 100 nM, 72 hours) | Lowest dose stimulating LNCaP cell growth (LNCaP cells [3]; MTS assay) [nM] | Effect of exogenously added protein on LNCaP cell growth (MTS) (LNCaP cells [3]; RPMI with 5% FCS, relative to untreated cells) | Proportion of LNCaP cells in G1 phase (LNCaP cells [2]; sPLA2-IIA containing medium (1 nM), 72 hours, untreated 74%) [%] | Proportion of LNCaP cells in G2/M phase (LNCaP cells [2]; sPLA2-IIA containing medium, in comparison to untreated cells) |
| --- | --- | --- | --- | --- | --- | --- | --- | --- | --- | --- | --- | --- |
| c(2NapA)LS(2NapA)R: cyclic peptide where F and Y are substituted with 2-naphthylalanine; sPLA2-IIA inhibitor (cyclo([2Nal]LS[2Nal]R); SMILES CC(C)C[C@@H]1NC(=O)[C@H](Cc2ccc3ccccc3c2)NC(=O)[C@H](CCCNC(=N)N)NC(=O)[C@H](Cc2ccc3ccccc3c2)NC(=O)[C@H](CO)NC1=O) | significant improvement in potency over linear peptides | neither of the inhibitors had an effect | significantly decreased | 1 | significantly decreased | 1 |  |  |  |  |  |  |
| cFLSYR: cyclic peptide FLSYR, sPLA2-IIA inhibitor derived from residues 70-74 of human sPLA2-IIA (cyclic) | significant improvement in potency over linear peptides | neither of the inhibitors had an effect | significantly decreased | 1 | significantly decreased | 1 | completely blocked | returned to basal levels |  |  |  |  |
| B1 |  |  |  |  |  |  |  |  | 1 | dose-dependently stimulated LNCaP cell growth | 62 | increase |
